How the values were obtained:
[1] = test system: H-2K anti-H-2d cytotoxic T-cells; test: Generation of H-2K anti-H-2d cytotoxic T-cell activity in mice, ex vivo 51Cr-release assay; design: species or system mouse (C3H/J; DBA/2 targets)
Method: Generation of H-2 Restricted Cytolytic T-lymphocytes in Mice
A mouse correlate of the human "one-way MLR" was developed in inbred strains of mice. The cells of one mouse strain (H-2^d) were injected i.v. into a different mouse strain (H-2^k). Mice were obtained from Charles River Laboratories, Hollister, Calif.). Because of the histoincompatibility between the two strains, the H-2^k mice develop cytotoxic T-cells capable of killing the cells of the H-2^d strain of mice (Abbas, A. K., id), which is the type of reaction observed in humans or animals receiving tissue grafts from histoincompatible donors. The H-2^k mice sensitized against H-2^d cells/allo-antigens were treated with either HE-33 (100 mg/kg i.v. or 400 mg/kg orally) every three days for 9 days or were not treated with drug.
Ex Vivo Assay. On the tenth day, all mice were sacrificed, and spleens were removed to test for splenic T-cell-mediated cytotoxicity against CON-A stimulated DBA/2 spleen cells expressing the H-2^d antigens. CON-A was obtained from Sigma Chem. Co., St. Louis, Mo. Spleen cell suspensions were prepared in complete culture medium and adjusted to desired concentrations. The CON-A blast cells were radiolabeled with ^51 Cr and mixed with the respective splenic effector cells at varying effector:target cell ratios in 96-well microtiter plates. The mixtures were cultured for 4 hr. at 37° C. in a 5% CO2 incubator. Lysis of target cells were assessed essentially as described previously for a ^51 Cr-release assay (Ojo-Amaize, E. A., et al., id) and results expressed as % specific lysis (FIG. 1).
*C3 H/J mouse was injected with 2 × 10^7 DBA/2 spleen cell
for 9 days. HE33 was administered either orally (400 mg/kg) or
intravenously (100 mg/kg) on day 0 and every three days. ConA stimulated
DBA/2 spleen cells were used as target cells.

[2] = test system: IL-4; test: IL-4 production in PHA-stimulated PBMC cultures; type: cell-based, human; design: % Inhibition of IL-4 production: concentration or dose not given beside the values
Method: Production of autocrine growth factors (IL-2, IL-4, IL-10 and Interferon-gamma) in PHA-stimulated human PBMC cultures
Culture supernatants were collected at the times indicated and frozen at -20° C. At the end of 96 hr., all supernatants were assayed by enzyme immunoassay for the presence of the cytokines: interleukin-2, -4, -10 and interferon (IFN)-gamma. Results were expressed in pg/mL concentration of cytokine and % inhibition of cytokine production.

[3] = Single dose range-finding toxicity study in mice; type: in vivo, mouse (Swiss Webster); design: key to Clinical observation: Normal / Clinical observation: Vocalization / Clinical observation: Slow breathing / Clinical observation: Hypoactive / Clinical observation: FPSR / Clinical observation: Cool to touch / Clinical observation: Hypoactivity: Observations are recorded as present (x); not observed (--); conditions: mouse, in vivo, single IV administration, mice
Method: (§1) Single dose range-finding study of HE-33 in mice
(§2) Swiss Webster mice (Charles River Laboratories, Hollister, Calif.) were used for the preliminary toxicology study. One mouse per dose level was administered a single intravenous (IV) dose of either 1.5, 15, 75, 100, 150, 200, 300 or 400 mg of HE-33/kg body weight. The dose volume for all mice receiving saline or formulations of HE-3 3 was 10 mL/kg body weight. All doses were administered as a slow-push IV injection in the tail vein. Day 1 of the study for each mouse occurred on the day of administration of the drug or the saline.
(§3) Clinical observations/body weights
(§4) Each mouse was observed closely for clinical signs of toxicity at approximately 10, 30 and 60 minutes and 5 hours after dosing on Day 1, and once daily on Days 2-8. In addition, mortality checks were performed twice daily. Body weights were obtained on each mouse prior to dosing on Day 1. Body weights (Day 1) for the mice used in this study ranged between 27.3 and 32.5 g (Table 8).
(§5) ^a Animals were dosed with saline adjusted to pH 8.55.
(§6) ^b Observations are recorded as present (x) or not observed (--).
(§7) ^c Additional observation was reported in the time interval closest t
(§8) ^d FPSR = Flattened posture with or without closed eyes; animal would
(§9) periodically have a startled response in response to or without a noise

[4] = test system: Swiss Webster mice; test: Single dose range-finding toxicity study in mice; type: in vivo, mouse (Swiss Webster); design: key to Clinical observation: Normal / Clinical observation: Vocalization / Clinical observation: Slow breathing / Clinical observation: Hypoactive / Clinical observation: FPSR / Clinical observation: Cool to touch / Clinical observation: Hypoactivity: Observations are recorded as present (x); not observed (--)
Method: as §1, §2, §3, §4, §5, §6, §7, §8, §9

[5] = animal 3, 75 mg/kg IV, 30 min to day 8
[6] = animal 4, 150 mg/kg IV, 10, 30, 60 min
[7] = animal 4, 150 mg/kg IV, 5 hr to day 8
[8] = animal 5, 300 mg/kg IV, 10 min to 5 hr
[9] = animal 5, 300 mg/kg IV, days 2-8
[10] = animal 11, 300 mg/kg IV, 30, 60 min
[11] = animal 11, 300 mg/kg IV, 10 min and 5 hr to day 8

In the case of CCCN(CCC)c1ncnc2c1ncn2[C@@H]1O[C@@H]2COP(=O)(O)O[C@H]2[C@H]1O [HE-33, N^6,N^6 -di-n-Propyl-c-AMP], the L.U. ([1]; I.V. injected 100 mg/kg) was 1 L.U, the “% Inhibition of cytotoxic T-cell activity” value ([1]; I.V. injected 100 mg/kg every three days) was 92% and the “% Lysis” value ([1]; I.V. injected 100 mg/kg, ratio 3.12:1) was 0%. The “% Lysis” value ([1]; I.V. injected 100 mg/kg, ratio 6.25:1) was 0%, the “% Lysis” value ([1]; I.V. injected 100 mg/kg, ratio 12.5:1) was 0% and the “% Lysis” value ([1]; I.V. injected 100 mg/kg, ratio 25:1) was 1%. For the same molecule, the “% Inhibition of cytotoxic T-cell activity” value ([1]; oral fed 400 mg/kg) was 32%, the L.U. ([1]; oral fed 400 mg/kg) was 9 L.U and the “% Lysis” value ([1]; oral fed 400 mg/kg, ratio 3.12:1) was 1%. For the same molecule, the “% Lysis” value ([1]; oral fed 400 mg/kg, ratio 6.25:1) was 2%, the “% Lysis” value ([1]; oral fed 400 mg/kg, ratio 12.5:1) was 2% and the “% Lysis” value ([1]; oral fed 400 mg/kg, ratio 25:1) was 5%. The “% Inhibition of IL-4 production” value ([2]; 24 hours) was 0%, the IL-4 production ([2]; 24 hours) was 1041 pg/mL and the “% Inhibition of IL-4 production” value ([2]; 48 hours) was 87%. For the same molecule, the IL-4 production ([2]; 48 hours) was 193 pg/mL, the “% Inhibition of IL-4 production” value ([2]; 72 hours) was 26% and the IL-4 production ([2]; 72 hours) was 860 pg/mL. The “% Inhibition of IL-4 production” value ([2]; 96 hours) was 25%, the IL-4 production ([2]; 96 hours) was 101 pg/mL and the No-effect level (NOEL) [3] was 100 mg/kg. The MTD ([3]; read-out: maximum tolerated dose (MTD)) was ≥ 400 mg/kg, the “Clinical signs of toxicity” value ([4]; 150-400 mg/kg IV, between 10 minutes and 5 hrs after dosing on Day 1) was “signs of hypoactivity, flattened posture with or without closed eyes and slow breathing” and the “Clinical observation: Normal” value ([4]; animal 1, 1.5 mg/kg IV, all times 10 min to day 8) was “x”. The “Clinical observation: Normal” value ([4]; animal 2, 15 mg/kg IV, all times 10 min to day 8) was “x”, the “Clinical observation: Normal” value ([4]; animal 3, 75 mg/kg IV, 10 min) was “--” and the “Clinical observation: Vocalization” value ([4]; animal 3, 75 mg/kg IV, 10 min) was “x”. For the same molecule, the “Clinical observation: Normal” value [4, 5] was “x”, the “Clinical observation: Vocalization” value [4, 5] was “--” and the “Clinical observation: FPSR” value [4, 6] was “x”. The “Clinical observation: Hypoactive” value [4, 6] was “x”, the “Clinical observation: Normal” value [4, 6] was “--” and the “Clinical observation: Slow breathing” value [4, 6] was “x”. The “Clinical observation: FPSR” value [4, 7] was “--”, the “Clinical observation: Hypoactive” value [4, 7] was “--” and the “Clinical observation: Normal” value [4, 7] was “x”. The “Clinical observation: Slow breathing” value [4, 7] was “--”, the “Clinical observation: FPSR” value ([4]; animal 5, 300 mg/kg IV, 10, 30, 60 min) was “x” and the “Clinical observation: Cool to touch” value ([4]; animal 5, 300 mg/kg IV, 10, 30, 60 min and days 2-8) was “--”. For the same molecule, the “Clinical observation: Hypoactivity” value [4, 8] was “x”, the “Clinical observation: Normal” value [4, 8] was “--” and the “Clinical observation: Slow breathing” value [4, 8] was “x”. For the same molecule, the “Clinical observation: Cool to touch” value ([4]; animal 5, 300 mg/kg IV, 5 hr) was “x”, the “Clinical observation: FPSR” value ([4]; animal 5, 300 mg/kg IV, 5 hr to day 8) was “--” and the “Clinical observation: Hypoactivity” value [4, 9] was “--”. The “Clinical observation: Normal” value [4, 9] was “x”, the “Clinical observation: Slow breathing” value [4, 9] was “--” and the “Clinical observation: Normal” value ([4]; animal 8, 100 mg/kg IV, all times 10 min to day 8) was “x”. The “Clinical observation: Normal” value ([4]; animal 9, 200 mg/kg IV, all times 10 min to day 8) was “x”, the “Clinical observation: Normal” value ([4]; animal 10, 200 mg/kg IV, all times 10 min to day 8) was “x” and the “Clinical observation: FPSR” value [4, 10] was “x”. For the same molecule, the “Clinical observation: Hypoactivity” value [4, 10] was “x”, the “Clinical observation: Normal” value [4, 10] was “--” and the “Clinical observation: Slow breathing” value [4, 10] was “x”. The “Clinical observation: FPSR” value [4, 11] was “--”, the “Clinical observation: Hypoactivity” value [4, 11] was “--” and the “Clinical observation: Normal” value [4, 11] was “x”. The “Clinical observation: Slow breathing” value [4, 11] was “--”, the “Clinical observation: Slow breathing” value ([4]; animal 12, 400 mg/kg IV, 10, 30, 60 min and days 2-8) was “--” and the “Clinical observation: FPSR” value ([4]; animal 12, 400 mg/kg IV, 10 min) was “--”. The “Clinical observation: Normal” value ([4]; animal 12, 400 mg/kg IV, 10 min and days 2-8) was “x”, the “Clinical observation: FPSR” value ([4]; animal 12, 400 mg/kg IV, 30 min) was “x” and the “Clinical observation: Normal” value ([4]; animal 12, 400 mg/kg IV, 30 min, 60 min, 5 hr) was “--”. For the same molecule, the “Clinical observation: FPSR” value ([4]; animal 12, 400 mg/kg IV, 60 min, 5 hr) was “x”, the “Clinical observation: Slow breathing” value ([4]; animal 12, 400 mg/kg IV, 5 hr) was “x” and the “Clinical observation: FPSR” value ([4]; animal 12, 400 mg/kg IV, days 2-8) was “--”. The “Condition after Day 1” value ([4]; drug-treated groups, Days 2 to 8) was “normal between Days 2 and 8” and the “Survival for the duration of the study” value ([4]; single IV 1.5-400 mg/kg, 8 days) was “All mice survived for the duration of the study”.

— patent publication US5968912A, “Methods for immunosuppressing” (Immune Modulation, Inc., priority 1997, dated 1999)
